Residues, ends and D or L forms follow the SMILES beside them. *: point of attachment. Cbz = O=C(OCc1ccccc1)*
Experiments:
MelanoDerm Skin Model = assay: Melanogenesis in MelanoDerm skin model, L-[14C]tyrosine assay; assay type: cell-based, human; details: 30 μM lipoic acid, positive control, means ± SEM, Control 100%
Text: Fibroblasts regulate the distinctive pigmented and thick morphology of skin on the palms and soles compared to the remainder of the body via a factor they secrete termed DKK1. […] [table]

[1] = tested on: MelanoDerm 3-D reconstructed human skin; assay: Pigmentation of 3-D reconstructed skin (MelanoDerm), L value and microscopy; assay type: cell-based; details: dark MelanoDerms, 9 days, NRG-1 50 ng/ml with C39 0.5 μM or CI-1033 2 μM, vs control
Method: Light, Medium, and Dark human epidermal equivalents (MelanoDerm®) were purchased from MatTek Corp. (Ashland, Mass.). MelanoDerms were grown at the air/liquid interface of the maintenance medium MEL-LLMM (MatTek Corp.), and the culture medium was renewed every 2 days. Where noted, MelanoDerms were treated for 9 days with 50 ng/ml NRG-1 (rhNRG-1-β1, R&D Systems, Minneapolis, Minn.) prepared in phosphate-buffered saline (PBS) with 0.1% bovine serum albumin (BSA) and MelanoDerm maintenance medium. The same concentrations of PBS and BSA were used for mock-treated controls.
For the studies where the MelanoDerms were treated with NRG-1 and/or various pan-ERBB inhibitors, Dark MelanoDerms were first incubated with a pan-ERBB inhibitor (0.5 μM Compound 39, EMD Chemicals, Gibbistown, N.J. or 2 μM CI-1033, Selleck Chemicals LLC, US) for 30 minutes or with vehicle (DMSO) only before treatment with 50 ng/ml NRG-1; identical amounts of DMSO (0.02%) were added to all samples. Treatment was renewed every 2 days in fresh medium and was continued for 9 days.
Three dimensional (3-D) reconstructed human skin models (termed MelanoDerms) were used to test the effects of NRG-1 on skin pigmentation. Three types of MelanoDerm, ‘light’ ([…]), ‘medium’ ([…]) and ‘dark’ ([…]), were used to compare the effects of NRG-1 on those three types of skin. In preliminary studies to optimize the concentration of NRG-1 (from 10 to 200 ng/ml were tested, FIG. 10), 50 ng/ml was chosen which was consistent with concentrations of NRG-1 used for other cell types by other groups. NRG-1 was added to the MelanoDerm media at 50 ng/ml and the medium was replenished every 2 days. On day 9, the MelanoDerms treated with NRG-1 were compared to controls treated only with vehicle. Pigmentation of the skin was assessed using the L value, higher L values indicating lighter colors. […] It should be noted that relatively small changes in ΔL can represent relatively large changes in visible skin color. For example, the mean L value of White/Caucasian skin is 67, that of Asians, Pacific-Islanders is 65, that of Hispanic/Latinos is 64, and that of American Indian/Alaska Native is 62. […] In the vehicle-treated control MelanoDerms, melanin pigment was more evenly distributed throughout the entire epidermis and no visible melanin accumulation was observed around melanocytes (FIG. 3B). […] Therefore, NRG-1 leads to visible increases in pigmentation in the MelanoDerms which was greater as the skin had more constitutive pigmentation.

HEM-DP melanocytes = assay: Melanin content assay (melanin/protein); assay type: cell-based, human; details: for Pigmentation: 8-mer peptides 100 nM, every day for 9 days, vs vehicle
Method: FIGS. 6A and 6B are bar graphs illustrating the effect of NRG-1 on the pigmentation of cultured human melanocytes. FIG. 6A) Lightly-pigmented (HEM-LP) and FIG. 6B) Darkly-pigmented (HEM-DP) melanocytes were treated with or without NRG-1 (50 ng/ml) for 1, 3, 5 or 9 days and proteins were extracted from each sample. After centrifugation at 10,000 g for 15 minutes, precipitates were analyzed for melanin content, and the supernatants were analyzed for protein content. Results are the average of three studies±SD; statistically significant differences are indicated.
FIGS. 9A and 9B are digital images illustrating the effect of pan-ERBB inhibitors on NRG-1 action on human melanocytes and MelanoDerms. FIG. 9A) HEM-DP melanocytes were treated for 9 days with 50 ng/ml NRG-1 in the presence of C39 (0.5 μM) or CI-1033 (2 μM) or vehicle (DMSO) alone. The results are the averages of 3 independent studies±SD. FIG. 9B) Dark MelanoDerms were treated for 9 days with 50 ng/ml NRG-1 in the presence of C39 (0.5 μM) or CI-1033 (2 μM) or vehicle (DMSO) alone. L values shown are the average of 3 spots measured in the center of each Melanoderm.
Melanin contents were determined by dissolving cell pellets overnight at room temperature in 200 μl 1 N NaOH, and melanin concentrations were quantitated by absorbance at 405 nm in a SpectraMax 250 ELISA reader (Molecular Devices) using a standard curve generated from synthetic melanin (Sigma-Aldrich, St. Louis, Mo.). Melanin content is expressed as μg melanin per μg protein. Each study was repeated at least three times.
The effects of NRG-1 on the pigmentation of human melanocytes were also examined. […] However, on day 9, when the cells had reached confluence, the pigmentation level of NRG-1-treated HEM-LP melanocytes was about 35% higher than the control (FIG. 6A).
The EGF domain of NRG-1 can activate the NRG-1 receptors. Two exemplary EGF domains of NRG-1 were aligned (SEQ ID NOs: 9 and 10) and 5 different […] peptides within these two sequences were designed (FIG. 12). Darkly-pigmented human epidermal melanocytes (HEM-DP) were treated with each of the […] peptides (100 nM) or the commercially available rhNRG-1 (6.25 nM) or the vehicle only (0.1% BSA in PBS) every other day for 7 days.
In particular, HEM-DP were treated with each of the 8-mer peptides (WC-6, […], amino acids 3-10 of SEQ ID NO: 10; WC-7, […], amino acids 8-15 of SEQ ID NO: 10; WC-8, […], amino acids 12-19 of SEQ ID NO: 10; WC-9, […], amino acids 16-23 of SEQ ID NO: 10; WC-10, […], amino acids 20-27 of SEQ ID NO: 10; 100 nM) or the full length EGF domain of NRG-1 (WC-11, SEQ ID NO: 10, 100 nM) or the commercially available rhNRG-1 (SEQ ID NO: 11, 6.25 nM) or vehicle only (0.1% BSA in PBS) every day for 9 days.

ERBB2 = ERBB2 protein level by western blotting in melanocytes; assay type: cell-based, human; details: HEM-LP and HEM-DP, NRG-1 50 ng/ml together with MG132 120 nM
Method: FIGS. 7A and 7B are digital images illustrating expression of ERBBs after NRG-1 treatment. FIG. 7A) HEM-LP and HEM-DP melanocytes were treated with or without NRG-1 (50 ng/ml) for 5 days, and levels of ERBB2, ERBB3 or ERBB4 were detected by western blotting. Results shown are representative of three studies. FIG. 7B) Expression of ERBB2 was examined in HEM-LP and in HEM-DP melanocytes after 1 or 9 days or treatment with NRG-1 compared to vehicle-treated controls; the results are representative of two independent studies.
FIGS. 8A and 8B are digital images illustrating the mechanism of ERBB2 abrogation after NRG-1 treatment. FIG. 8A) ERBB2 mRNA levels in HEM-LP and in HEM-DP melanocytes were detected by RT-PCR after treatment with or without NRG-1 (50 ng/ml) for 1 day. FIG. 8B) MG132 (120 nM) was added to the melanocyte culture medium to inhibit proteasomal degradation during treatment of HEM-LP and HEM-DP melanocytes with or without NRG-1 (50 ng/ml). Proteins were extracted for each sample, and ERBB2 levels were detected by western blotting. Results are representative of three studies.
Fibroblast cultures in 100-mm dishes were solubilized in appropriate volumes of M-PER mammalian protein extraction reagent (Pierce Biotechnology, Rockford, Ill.) containing a Protease Inhibitor mixture (Roche, Mannheim, Germany) and phosphatase inhibitors. The protein concentration of each extract was measured using a BCA protein assay kit (Pierce, Rockford, Ill.). Cell extracts (20 μg) were separated on 8-16% gradient SDS polyacrylamide gels (Invitrogen, Carlsbad, Calif.), after which proteins were transferred to PVDF membranes (Invitrogen, Carlsbad, Calif.). Membranes were blocked for 1 hour in PBS or Tris buffered saline (TBS) containing 0.1% Tween 20 and 5% (w/v) nonfat dry milk powder and were incubated overnight at 4° C. with the primary antibody in PBS containing 0.1% Tween 20 and 2.5% (w/v) nonfat dry milk powder or in 0.1% Tween-TBS with 5% BSA, depending on the antibody. The following primary antibodies were used: anti-human DKK-1 (0.2 μg/ml), anti-human DKK-3 (0.1 μg/ml), anti-human bFGF (0.1 μg/ml), anti-human SCF (0.1 μg/ml), anti-human mouse monoclonal ERBB3 (1 μg/ml) and anti-human mouse monoclonal ERBB4 (2 μg/ml) antibodies from R&D Systems, neuregulin-1α/β1/2 (C-20) (1:500) and GAPDH (FL-335) (1:10,000) antibodies from Santa Cruz Biotechnology, ERBB2 rabbit monoclonal (1:1000) and phospho-Akt (Ser473) (1:1000) antibodies from Cell Signaling Technology. Membranes were then incubated with an HRP-linked anti-rabbit antibody (GE Healthcare) at 1:10,000 dilution or with an anti-goat antibody (DAKO) at 1:2,000 dilution at room temperature for 1 hour. Antigen-antibody complexes were detected using an ECL-plus Western blotting detection system (GE Healthcare). […]

## O=C(O)CCCC[C@@H]1CCSS1 (racemic) [Lipoic acid, lipoic acid]
MelanoDerm Skin Model
  Melanogenesis: 2 ± 2%

## C=CC(=O)Nc1cc2c(Nc3ccc(F)c(Cl)c3)ncnc2cc1OCCCN1CCOCC1 [CI-1033, reference compound]
[1]
  Pigmentation of MelanoDerms, NRG-1 in the presence of ERBB inhibitor: did not increase the pigmentation
HEM-DP melanocytes; 9 days, C39 0.5 μM or CI-1033 2 μM alone
  Melanin content, inhibitor alone: did not affect
HEM-DP melanocytes; 9 days, NRG-1 50 ng/ml with C39 0.5 μM or CI-1033 2 μM
  Melanin content, NRG-1 in the presence of ERBB inhibitor: remained at the same level as the control

## CC(C)C[C@@H](C=O)NC(=O)[C@H](CC(C)C)NC(=O)[C@H](CC(C)C)NC(=O)OCc1ccccc1 [MG132, reference compound] (Cbz-Leu-Leu-Leu-aldehyde)
ERBB2
  Level of ERBB2 protein: returned to the control level

## WC-03: 16-mer NRG-1 peptide including amino acids 8-23 of SEQ ID NO: 9 (FMVKDLSNPSRYLCKC)
HEM-DP melanocytes; 16-mer peptides 100 nM, every other day for 7 days, n=4
  Pigmentation (melanin) compared to control: highest increase in pigmentation

## WC-9: 8-mer peptide PSRYLCKC, amino acids 16-23 of SEQ ID NO: 10
HEM-DP melanocytes
  Pigmentation: statistically significant increases of pigmentation

## WC-10: 8-mer peptide LCKCPNEF, amino acids 20-27 of SEQ ID NO: 10
HEM-DP melanocytes
  Pigmentation: statistically significant increases of pigmentation
